The text below walks through data of patent US5686628A, “Proline derivatives” (Zeneca Ltd., priority 1995, dated 1997).

Molecules are shown by their SMILES. Read-outs that look alike come from different tables or passages of the source. Where a SMILES comes first, the peptide text is derived from it. [ ]: non-standard residue; d: D form. The star is where a group is joined. ξ: configuration not given here. ξV = CC(C)C(N)C(=O)O; CF3 = FC(F)(F)*; Moc = COC(=O)*

For data set [1], the target named is T1, human neutrophil elastase (HNE) (Homo sapiens, UniProt P08246).
T1 sequence (P08246 30-267): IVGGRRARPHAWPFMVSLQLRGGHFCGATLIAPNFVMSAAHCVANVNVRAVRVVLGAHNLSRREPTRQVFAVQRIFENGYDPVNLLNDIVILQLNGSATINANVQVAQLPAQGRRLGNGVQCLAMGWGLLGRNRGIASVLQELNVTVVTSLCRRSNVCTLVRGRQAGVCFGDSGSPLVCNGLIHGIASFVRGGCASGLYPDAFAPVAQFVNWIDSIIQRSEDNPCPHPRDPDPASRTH
The data set is described as follows: Acute Hemorrhagic Assay (HNE-induced lung hemorrhage in hamsters). It counts as in vivo, Male Syrian hamsters. To be noted: hamster, 50 μg/animal HNE intratracheal, 4 h, read-out: ED50 (inhibition of HNE-induced hemorrhage).
Experimental: This assay relies on monitoring only the amount of hemorrhage in the lung following intratracheal administration of human neutrophil elastase (HNE). Hemorrhage is quantified by disrupting erythrocytes recovered in lung lavage fluid and comparing that to dilutions of whole hamster blood. […] Male Syrian hamsters (fasted for 16-18 hours prior to use) are lightly anaesthetised with Brevital sodium (30 mg/kg i.p.). […] Four hours after enzyme administration, the animals are killed with an overdose of pentobarbital sodium, the thorax opened and the lungs and heart removed and the lungs cleared of extraneous material. The excised lungs are lavaged with three changes of 2 ml PBS via a tracheal cannula. The recovered lavages are pooled, the volumes (about 5 mL) are recorded and the lavages stored at 4 ° C. until assayed. For calculation of the amount of blood in each sample, the thawed lavages and a sample of whole hamster blood are sonicated to disrupt erythrocytes and appropriately diluted into individual wells of a 96-well microtiter plate. The optical densities (OD) of the disrupted lavages and blood samples are determined at 540 nm. The (μL blood equivalents) / (mL lavage) are determined by comparing the OD of the test samples with the OD of the standard curve prepared from whole hamster blood. The total μL equivalents of blood recovered is determined by multiplying recovered lavage volume by the (μL blood equivalents) / (mL lavage) for each sample.

In data set [2] the target is T2, human leukocyte elastase (HLE) (Homo sapiens, UniProt P08246).
T2 sequence (P08246 30-267): T1 sequence (P08246 30-267)
The data set is described as follows: Inhibition of human leukocyte elastase (HLE) on low molecular weight peptide substrate methoxy-succinyl-alanyl-alanyl-prolyl-valine-p-nitroanilide. The data set is classed as biochemical. To be noted: kinetic determination, read-out: Ki (dissociation constant of the complex formed from the interaction of the inhibitor with HLE). As to the method:
The potency of the compound of the invention (or a particular form thereof) to act as an inhibitor of human leukocyte elastase (HLE) on the low molecular weight peptide substrate methoxy-succinyl-alanyl-alanyl-prolyl-valine-p-nitroanilide is determined as described in U.S. Pat. No. 4,910,190. The potency of the compound is evaluated by obtaining a kinetic determination of the dissociation constant, Ki, of the complex formed from the interaction of the inhibitor with HLE.

The nature of data set [3]: Bioavailability. The following applies: crystalline hydrated forms. The data set is classed as in vivo.
Data set [4] is described as follows: Hygroscopicity. The data set is classed as physicochemical.
The nature of data set [5]: Solubility in aqueous buffer. The following applies: crystalline hydrated forms. It counts as physicochemical.

Broadly, the ED50 is the dose at which the effect has come halfway, by size or by number of responders. One may read the Ki as the equilibrium dissociation constant of an inhibitor or competing ligand from its target. As for `COC(=O)N[C@H](C(=O)N1CCC[C@H]1C(=O)NC(C(=O)C(F)(F)F)C(C)C)C(C)C` (stereo partly drawn) [Example 1, (S)-1-[(S)-2-(methoxycarbonylamino)-3-methylbutyryl]-N-[2-methyl-1-(2,2,2-trifluoroacetyl)propyl]pyrrolidine-2-carboxamide] (Moc-Val-Pro-[ξV]-CF3), the ED50 in data set [1] (oral dosing) worked out at 4.5 mg/kg. For the same compound, in data set [2], the Ki came out at 36 nM.
In the case of `COC(=O)N[C@H](C(=O)N1CCC[C@H]1C(=O)N[C@H](C(=O)C(F)(F)F)C(C)C)C(C)C` [Example 2, (S)-1-[(S)-2-(methoxycarbonylamino)-3-methylbutyryl]-N-[(S)-2-methyl-1-(2,2,2-trifluoroacetyl)propyl]-pyrrolidine-2-carboxamide] (HELM PEPTIDE1{[COC(=O)[*:2]].V.P.V.[FC(F)(F)[*:1]]}$$$$V2.0), the ED50 in data set [1] (iv, i.v. administration) was 0.6 mg/kg; in data set [1] (oral dosing) it was 1.9 mg/kg. Further, in data set [2], the Ki stood at 9 nM. In addition, the bioavailability entry in data set [3] is given as “good bioavailability”. For the same compound, the hygroscopicity entry in data set [4] (listed as Form A) is “non-hygroscopic”. Moreover, the “solubility in aqueous buffer” value in data set [5] is “good solubility in aqueous buffer”.
In the case of `COC(=O)N[C@H](C(=O)N1CCC[C@H]1C(=O)N[C@H](C(=O)C(F)(F)F)C(C)C)C(C)C` [Example 8] (HELM PEPTIDE1{[COC(=O)[*:2]].V.P.V.[FC(F)(F)[*:1]]}$$$$V2.0), the hygroscopicity result in data set [4] (listed as Form B) was “non-hygroscopic”.
`COC(=O)N[C@H](C(=O)N1CCC[C@H]1C(=O)N[C@H](C(=O)C(F)(F)F)C(C)C)C(C)C` [Example 10] (HELM PEPTIDE1{[COC(=O)[*:2]].V.P.V.[FC(F)(F)[*:1]]}$$$$V2.0): the hygroscopicity result in data set [4] (listed as "ketone" form) was “hygroscopic”.
